This is an account of results in patent US20100311714A1, “1H-IMIDAZO[4,5-c]QUINOLINONE COMPOUNDS” (priority 2009, published 2010).

One test concerns the target T1, mTOR (Homo sapiens, UniProt P42345).
T1 construct: purchased Invitrogen Corporation (Carlsbad/Calif., USA) PV4753
Put plainly: Biochemical assay for m-TOR by TR-FRET. As to conditions: read-out: EPK_mTOR/IC50. A digest of the protocol:
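mTOR (0.5 nM) phosphorylates GFP-4EBP1 (400 nM) with 8 μM ATP at rt in 50 mM HEPES pH 7.5, 10 mM MnCl2, 50 mM NaCl, 1 mM EGTA, 1 mM DTT; compounds 0.003–10 μM final. EDTA stop with Tb-anti-p4EBP1[pT46] antibody (0.5 nM); TR-FRET read after 15 min against no-enzyme and vehicle controls.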

Test [1] concerns S6 Ribosomal Protein phosphorylation Ser235/236 in TSC1 null mouse embryo fibroblast (MEF) cells. Put plainly: Reverse protein array, S6 Ribosomal Protein phosphorylation in TSC1 null MEF cells. The settings on record: 1 h, TSC1-/- MEFs, 60 minutes, read-out: p-S6 IC50. The format is cell-based. Put shortly:
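Phospho-S6 (Ser235/236) was quantified by reverse protein array of cell lysates with a phospho-specific primary antibody. […]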

Where only a bound is given, the exact number is not on record here.

T1 sequence (P42345 1360-2549 limits assumed): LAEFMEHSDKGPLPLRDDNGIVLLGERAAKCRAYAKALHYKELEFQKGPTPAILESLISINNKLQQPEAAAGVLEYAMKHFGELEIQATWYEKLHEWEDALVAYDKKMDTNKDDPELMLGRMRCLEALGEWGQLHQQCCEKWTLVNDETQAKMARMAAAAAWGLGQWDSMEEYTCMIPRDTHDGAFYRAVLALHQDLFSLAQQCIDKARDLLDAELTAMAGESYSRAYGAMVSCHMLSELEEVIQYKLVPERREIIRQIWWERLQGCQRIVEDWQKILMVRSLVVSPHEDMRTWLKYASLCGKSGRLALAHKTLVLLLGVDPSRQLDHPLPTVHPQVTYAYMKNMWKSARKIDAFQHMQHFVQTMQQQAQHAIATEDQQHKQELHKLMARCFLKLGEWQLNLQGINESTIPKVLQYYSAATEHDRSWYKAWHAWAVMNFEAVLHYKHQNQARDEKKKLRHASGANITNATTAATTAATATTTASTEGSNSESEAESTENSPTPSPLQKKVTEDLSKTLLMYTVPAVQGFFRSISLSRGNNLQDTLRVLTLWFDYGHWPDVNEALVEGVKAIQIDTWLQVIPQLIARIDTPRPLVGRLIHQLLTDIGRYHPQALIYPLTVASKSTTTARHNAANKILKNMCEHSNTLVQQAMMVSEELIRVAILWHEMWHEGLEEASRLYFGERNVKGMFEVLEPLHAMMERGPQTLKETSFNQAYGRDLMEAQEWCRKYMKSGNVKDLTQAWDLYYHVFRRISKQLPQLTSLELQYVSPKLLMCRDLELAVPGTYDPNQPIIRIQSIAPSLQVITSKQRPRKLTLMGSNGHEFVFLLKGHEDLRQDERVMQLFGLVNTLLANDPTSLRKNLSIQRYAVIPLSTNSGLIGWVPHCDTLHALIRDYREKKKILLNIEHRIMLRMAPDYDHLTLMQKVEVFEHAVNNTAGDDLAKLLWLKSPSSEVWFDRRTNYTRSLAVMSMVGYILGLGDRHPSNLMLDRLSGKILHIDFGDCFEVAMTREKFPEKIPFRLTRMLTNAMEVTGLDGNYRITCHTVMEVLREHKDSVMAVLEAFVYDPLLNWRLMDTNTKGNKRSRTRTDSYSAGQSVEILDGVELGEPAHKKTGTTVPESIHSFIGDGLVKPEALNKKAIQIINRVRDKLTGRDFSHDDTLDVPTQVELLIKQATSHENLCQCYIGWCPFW

On to `CCOCc1cc(-c2ccc3ncc4c(c3c2)n(-c2ccc(F)nc2C)c(=O)n4C)cnc1N` [Example 7.15, 8-(6-Amino-5-ethoxymethyl-pyridin-3-yl)-1-(6-fluoro-2-methyl-pyridin-3-yl)-3-methyl-1,3-dihydro-imidazo[4,5-c]quinolin-2-one], for which the results for the IC50 (at mTOR; in test [1]) were 426 nM and 8 nM, respectively.

`Cc1nc(F)ccc1-n1c(=O)n(C)c2cnc3ccc(-c4cncc(N)c4)cc3c21` [Example 7.16, 8-(5-Amino-pyridin-3-yl)-1-(6-fluoro-2-methyl-pyridin-3-yl)-3-methyl-1,3-dihydro-imidazo[4,5-c]quinolin-2-one]: the IC50 on mTOR amounted to 110 nM; in test [1] it was 26 nM.

In the case of `Cc1nc(F)ccc1-n1c(=O)n(C)c2cnc3ccc(-c4cnc(N)c(CO)c4)cc3c21` [Example 7.17, 8-(6-Amino-5-hydroxymethyl-pyridin-3-yl)-1-(6-fluoro-2-methyl-pyridin-3-yl)-3-methyl-1,3-dihydro-imidazo[4,5-c]quinolin-2-one], the IC50 was 80 nM at mTOR and 5 nM in test [1].

`COCCOc1cc(-c2ccc3ncc4c(c3c2)n(-c2ccc(OC)nc2OC)c(=O)n4C)cnc1C` [Example 8.9, 1-(2,6-Dimethoxy-pyridin-3-yl)-8-[5-(2-methoxy-ethoxy)-6-methyl-pyridin-3-yl]-3-methyl-1,3-dihydro-imidazo[4,5-c]quinolin-2-one]: the figures for the IC50 (at mTOR; in test [1]) were 10 nM and 4 nM, respectively.

With `COc1ccc(-n2c(=O)n(C)c3cnc4ccc(-c5ccc6nccn6c5)cc4c32)c(OC)n1` [Example 8.10, 1-(2,6-Dimethoxy-pyridin-3-yl)-8-imidazo[1,2-a]pyridin-6-yl-3-methyl-1,3-dihydro-imidazo[4,5-c]quinolin-2-one], the results for the IC50 (at mTOR; in test [1]) were 470 nM and 6.8 nM, respectively.

Turning to `COCc1ncc(-c2ccc3ncc4c(c3c2)n(-c2ccc(OC)nc2OC)c(=O)n4C)cc1OC` [Example 8.12, 1-(2,6-Dimethoxy-pyridin-3-yl)-8-(5-methoxy-6-methoxymethyl-pyridin-3-yl)-3-methyl-1,3-dihydro-imidazo[4,5-c]quinolin-2-one], the values for the IC50 (at mTOR; in test [1]) were 17 nM and 4 nM, respectively.

In the case of `COc1nc(N2CCNCC2)ccc1-n1c(=O)n(C)c2cnc3ccc(-c4cnc(N(C)C)nc4)cc3c21` [Example 9.4, 8-(2-Dimethylamino-pyrimidin-5-yl)-1-(2-methoxy-6-piperazin-1-yl-pyridin-3-yl)-3-methyl-1,3-dihydro-imidazo[4,5-c]quinolin-2-one], the IC50 at mTOR was found to be 9 nM; in test [1], 6 nM.

As for `CCNc1cc(-c2ccc3ncc4c(c3c2)n(-c2ccc(OC)nc2C)c(=O)n4C)cnc1C` [Example 11.7, 8-(5-Ethylamino-6-methyl-pyridin-3-yl)-1-(6-methoxy-2-methyl-pyridin-3-yl)-3-methyl-1,3-dihydro-imidazo[4,5-c]quinolin-2-one], the IC50 stood at 3 nM at mTOR and 2 nM in test [1].

For the compound `CCN(C)c1ccc(-n2c(=O)n(C)c3cnc4ccc(-c5ccc(NC)nc5)cc4c32)c(C)n1` [Example 12.1, 1-[6-(Ethyl-methyl-amino)-2-methyl-pyridin-3-yl]-3-methyl-8-(6-methylamino-pyridin-3-yl)-1,3-dihydro-imidazo[4,5-c]quinolin-2-one], the IC50 at mTOR is 10 nM; in test [1] it was less than 0.457 nM.

`CCNc1cc(-c2ccc3ncc4c(c3c2)n(-c2ccc(N(C)CC)nc2C)c(=O)n4C)cnc1C` [Example 12.2, 8-(5-Ethylamino-6-methyl-pyridin-3-yl)-1-[6-(ethyl-methyl-amino)-2-methyl-pyridin-3-yl]-3-methyl-1,3-dihydro-imidazo[4,5-c]quinolin-2-one]: the figures for the IC50 (at mTOR; in test [1]) were 7 nM and 3 nM, respectively.

On to `CCOc1ccc(-c2ccc3ncc4c(c3c2)n(-c2ccc(OCCOC)nc2C)c(=O)n4C)cn1` [Example 13.1, 8-(6-Ethoxy-pyridin-3-yl)-1-[6-(2-methoxy-ethoxy)-2-methyl-pyridin-3-yl]-3-methyl-1,3-dihydro-imidazo[4,5-c]quinolin-2-one], for which the IC50 at mTOR was determined as 49 nM; in test [1], 18 nM.

Consider `COCCOc1ccc(-n2c(=O)n(C)c3cnc4ccc(-c5cnc(N)c(C(F)(F)F)c5)cc4c32)c(C)n1` [Example 13.2, 8-(6-Amino-5-trifluoromethyl-pyridin-3-yl)-1-[6-(2-methoxy-ethoxy)-2-methyl-pyridin-3-yl]-3-methyl-1,3-dihydro-imidazo[4,5-c]quinolin-2-one], for which the IC50 on mTOR turned out to be 18 nM; in test [1], 1 nM.

For `CNc1ccc(-c2ccc3ncc4c(c3c2)n(-c2ccc(OCCOC)nc2C)c(=O)n4C)cn1` [Example 13.3, 1-[6-(2-Methoxy-ethoxy)-2-methyl-pyridin-3-yl]-3-methyl-8-(6-methylamino-pyridin-3-yl)-1,3-dihydro-imidazo[4,5-c]quinolin-2-one], the IC50 came out at 14 nM at mTOR and 3 nM in test [1].

As for `CCNc1cc(-c2ccc3ncc4c(c3c2)n(-c2ccc(OCCOC)nc2C)c(=O)n4C)cnc1C` [Example 13.4, 8-(5-Ethylamino-6-methyl-pyridin-3-yl)-1-[6-(2-methoxy-ethoxy)-2-methyl-pyridin-3-yl]-3-methyl-1,3-dihydro-imidazo[4,5-c]quinolin-2-one], the IC50 worked out at 6 nM at mTOR and 1 nM in test [1].

`CNc1ncc(-c2ccc3ncc4c(c3c2)n(-c2ccc(OCCOC)nc2C)c(=O)n4C)cn1` [Example 13.5, 1-[6-(2-Methoxy-ethoxy)-2-methyl-pyridin-3-yl]-3-methyl-8-(2-methylamino-pyrimidin-5-yl)-1,3-dihydro-imidazo[4,5-c]quinolin-2-one]: the IC50 at mTOR came out at 39 nM; in test [1] it was 1.1 nM.

For the compound `CCOc1ccc(-c2ccc3ncc4c(c3c2)n(-c2ccc(C)nc2C)c(=O)n4C)cn1` [Example 14.2, 1-(2,6-Dimethyl-pyridin-3-yl)-8-(6-ethoxy-pyridin-3-yl)-3-methyl-1,3-dihydro-imidazo[4,5-c]quinolin-2-one], the results for the IC50 (on mTOR; in test [1]) were 26 nM and 16 nM, respectively.

Turning to `Cc1ccc(-n2c(=O)n(C)c3cnc4ccc(-c5cnc(N(C)C)nc5)cc4c32)c(C)n1` [Example 14.3, 8-(2-Dimethylamino-pyrimidin-5-yl)-1-(2,6-dimethyl-pyridin-3-yl)-3-methyl-1,3-dihydro-imidazo[4,5-c]quinolin-2-one], the IC50 on mTOR was found to be 48 nM; in test [1], 10 nM.

For the compound `CNc1ncc(-c2ccc3ncc4c(c3c2)n(-c2ccc(C)nc2C)c(=O)n4C)cn1` [Example 14.4, 1-(2,6-Dimethyl-pyridin-3-yl)-3-methyl-8-(2-methylamino-pyrimidin-5-yl)-1,3-dihydro-imidazo[4,5-c]quinolin-2-one], the IC50 is 14 nM on mTOR and 7 nM in test [1].

For the compound `Cc1ccc(-n2c(=O)n(C)c3cnc4ccc(-c5cnc(N)c(C(F)(F)F)c5)cc4c32)c(C)n1` [Example 14.5, 8-(6-Amino-5-trifluoromethyl-pyridin-3-yl)-1-(2,6-dimethyl-pyridin-3-yl)-3-methyl-1,3-dihydro-imidazo[4,5-c]quinolin-2-one], the figures for the IC50 (on mTOR; in test [1]) were 17 nM and 1 nM, respectively.

For the compound `CCNc1cc(-c2ccc3ncc4c(c3c2)n(-c2ccc(C)nc2C)c(=O)n4C)cnc1C` [Example 14.6, 1-(2,6-Dimethyl-pyridin-3-yl)-8-(5-ethylamino-6-methyl-pyridin-3-yl)-3-methyl-1,3-dihydro-imidazo[4,5-c]quinolin-2-one], the IC50 worked out at 6 nM at mTOR and 2 nM in test [1].

On to `Cc1ccc(-n2c(=O)n(C)c3cnc4ccc(-c5cnc6c(ccn6C)c5)cc4c32)c(C)n1` [Example 14.7, 1-(2,6-Dimethyl-pyridin-3-yl)-3-methyl-8-(1-methyl-1H-pyrrolo[2,3-b]pyridin-5-yl)-1,3-dihydro-imidazo[4,5-c]quinolin-2-one], for which the IC50 at mTOR is 13 nM; in test [1], 3 nM.

`Cc1ccc(-n2c(=O)n(C)c3cnc4ccc(-c5cncc(NC(C)C)c5)cc4c32)c(C)n1` [Example 14.8, 1-(2,6-Dimethyl-pyridin-3-yl)-8-(5-isopropylamino-pyridin-3-yl)-3-methyl-1,3-dihydro-imidazo[4,5-c]quinolin-2-one]: the IC50 stood at 28 nM on mTOR and 2 nM in test [1].

On to `COCCN(C)c1ccc(-n2c(=O)n(C)c3cnc4ccc(-c5cnc(N)c(C(F)(F)F)c5)cc4c32)c(C)n1` [Example 15.1, 8-(6-Amino-5-trifluoromethyl-pyridin-3-yl)-1-{6-[(2-methoxy-ethyl)-methyl-amino]-2-methyl-pyridin-3-yl}-3-methyl-1,3-dihydro-imidazo[4,5-c]quinolin-2-one], for which the IC50 at mTOR was 8 nM; in test [1] it was 1 nM.

Turning to `CNc1ncc(-c2ccc3ncc4c(c3c2)n(-c2ccc(N(C)CCOC)nc2C)c(=O)n4C)cn1` [Example 15.2, 1-{6-[(2-Methoxy-ethyl)-methyl-amino]-2-methyl-pyridin-3-yl}-3-methyl-8-(2-methylamino-pyrimidin-5-yl)-1,3-dihydro-imidazo[4,5-c]quinolin-2-one], the IC50 (on mTOR; in test [1]) was 7 nM each time.

`CCOc1ccc(-c2ccc3ncc4c(c3c2)n(-c2ccc(N(C)CCOC)nc2C)c(=O)n4C)cn1` [Example 15.3, 8-(6-Ethoxy-pyridin-3-yl)-1-{6-[(2-methoxy-ethyl)-methyl-amino]-2-methyl-pyridin-3-yl}-3-methyl-1,3-dihydro-imidazo[4,5-c]quinolin-2-one]: the IC50 on mTOR came out at 120 nM; in test [1], 130 nM.
